How the values were obtained:
human NR1/NR2B = human NR1/NR2B (Homo sapiens (Human), UniProt Q05586+Q13224); assay: NR2B antagonist activity, Fluo-4 calcium influx in HEK293 cells; format: cell-based
Protocol: (§1) HEK293 cell lines stably expressing cloned human NR1/NR2B and NR1/NR2A, respectively, were established according to standard previously described methods (Hansen et al., Comb. Chem High Throughput Screen. 11:304, 2008). Activation of the NR2A or NR2B subtype of NMDA receptor with glutamate as an agonist and glycine co-agonist on these cells results in calcium influx, which can be monitored with fluorescent indicator Fluo-4.
(§2) For experiments, the cells were seeded onto poly-D-lysine-coated 96-well black plates with clear bottom (Corning) at a density of ˜50,000 cells/well. After overnight culture, the growth medium was removed from the wells and the cells were incubated at 37° C. for 60 min in Hanks buffer containing 4 μM fluo-4-AM (Invitrogen) and 0.1% bovine serum albumin (BSA). After dye-loading, the cells were washed three times with Hanks buffer and incubated for 10 min at room temperature with various concentrations of test compounds prepared in Hanks buffer with 0.1% BSA. The cell plates were placed onto FDSS pCell fluorescence reader (Hamamatsu). After 20 sec reading of background fluorescence, agonist glutamate at final 100 μM and co-agonist glycine at final 50 μM were added to the cells to activate the receptor, and the resulting fluorescence changes were recorded and quantified. Based on the changes in fluorescence intensity, the pharmacological effect of test compounds were analyzed and the IC50 values derived from a non-linear least squares fitting of the concentration-dependent response to a standard logistic equation using Prism (Graphpad, Inc): Amplitude=Max Amplitude/(1+(IC50/[antagonist])^n).

human NR1/NR2A = human NR1/NR2A (Homo sapiens (Human), UniProt Q05586+Q12879); assay: NR2A antagonist activity, Fluo-4 calcium influx in HEK293 cells; format: cell-based; details: Table 2.1, glutamate 100 μM, glycine 50 μM
Sequence of human NR1/NR2A (Q12879 23-1464, other chains not shown): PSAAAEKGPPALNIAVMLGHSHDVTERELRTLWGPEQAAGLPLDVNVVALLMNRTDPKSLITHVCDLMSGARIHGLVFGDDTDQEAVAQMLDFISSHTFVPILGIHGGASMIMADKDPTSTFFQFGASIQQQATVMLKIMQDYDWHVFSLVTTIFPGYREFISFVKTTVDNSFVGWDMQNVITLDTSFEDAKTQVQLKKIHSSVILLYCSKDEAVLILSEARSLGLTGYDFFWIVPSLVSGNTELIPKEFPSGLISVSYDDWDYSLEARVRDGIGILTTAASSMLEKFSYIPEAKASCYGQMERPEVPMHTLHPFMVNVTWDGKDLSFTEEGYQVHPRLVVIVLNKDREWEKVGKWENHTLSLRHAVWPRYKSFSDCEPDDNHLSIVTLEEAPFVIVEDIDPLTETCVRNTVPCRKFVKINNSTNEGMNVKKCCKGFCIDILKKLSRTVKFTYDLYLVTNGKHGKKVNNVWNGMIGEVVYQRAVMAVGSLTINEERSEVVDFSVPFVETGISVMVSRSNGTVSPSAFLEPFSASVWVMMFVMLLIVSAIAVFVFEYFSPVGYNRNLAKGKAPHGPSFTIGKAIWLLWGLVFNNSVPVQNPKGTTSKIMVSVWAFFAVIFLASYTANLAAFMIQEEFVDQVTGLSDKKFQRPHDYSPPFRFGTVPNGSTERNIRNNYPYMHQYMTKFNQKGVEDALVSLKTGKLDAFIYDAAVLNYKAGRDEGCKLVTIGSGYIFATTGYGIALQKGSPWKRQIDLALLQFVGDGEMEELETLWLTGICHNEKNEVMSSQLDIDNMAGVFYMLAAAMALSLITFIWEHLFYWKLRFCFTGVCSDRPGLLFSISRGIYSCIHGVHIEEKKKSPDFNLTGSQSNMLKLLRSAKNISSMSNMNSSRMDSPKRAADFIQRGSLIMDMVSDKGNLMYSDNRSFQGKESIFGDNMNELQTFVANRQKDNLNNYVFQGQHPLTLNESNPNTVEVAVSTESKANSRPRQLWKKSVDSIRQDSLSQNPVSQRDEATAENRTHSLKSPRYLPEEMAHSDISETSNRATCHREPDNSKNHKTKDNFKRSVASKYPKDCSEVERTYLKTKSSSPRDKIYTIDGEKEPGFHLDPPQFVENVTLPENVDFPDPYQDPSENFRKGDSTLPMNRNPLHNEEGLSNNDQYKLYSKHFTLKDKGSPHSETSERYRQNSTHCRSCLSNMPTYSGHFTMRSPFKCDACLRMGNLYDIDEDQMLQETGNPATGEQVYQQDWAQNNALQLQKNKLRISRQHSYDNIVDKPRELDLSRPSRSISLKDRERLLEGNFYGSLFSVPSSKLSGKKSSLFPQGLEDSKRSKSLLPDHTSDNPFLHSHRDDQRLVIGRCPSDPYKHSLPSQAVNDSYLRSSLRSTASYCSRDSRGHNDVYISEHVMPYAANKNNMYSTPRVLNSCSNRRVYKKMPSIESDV
Protocol: as §1, §2

NMDA receptor = assay: [3H] MK-801 radioligand binding, rat brain membranes; details: 2 nM [3H] MK-801
Protocol: (§3) This example describes NMDA receptor binding assays using two different radioligands, [^3H] […] An established binding assay using the non-selective NMDA receptor ligand [^3H] […] The binding assay method using the NR2B selective receptor ligand [^3H] […] This assay serves as a selective measure of NR2B receptor binding activity in native rat brain receptors. Briefly, the brains of Male Wistar rats were homogenized (Polytron) before centrifugation at 40,000×g for 15 minutes at 4° C. After 2 washes, the final pellet was homogenized and stored at −80° C. The protein concentration was determined by Bradford assay.
(§4) Test compounds were solubilized at 10 mM in DMSO. Then the dilutions were performed with a constant solvent concentration (1% DMSO) in the assay.
(§5) After incubation for 4.5 h at room temperature, the assays were filtered on GF/B filters pretreated with 0.3% (v/v) PEI with a Brandel system for [^3H] […] The experiment was performed in duplicate (n=2).

NR2B receptor = NR2B receptor (Rattus norvegicus (Rat), UniProt P35439+Q00960); assay: [3H] (E)-N1-(2-methoxybenzyl)-cinnamidine radioligand binding, rat brain membranes; details: for displacement of [3H] (E)-N1-(2-methoxybenzyl)-cinnamidine at the NR2B receptor high affinity site: rat brain membranes
Sequence of NR2B receptor (Q00960 27-1482, other chains not shown): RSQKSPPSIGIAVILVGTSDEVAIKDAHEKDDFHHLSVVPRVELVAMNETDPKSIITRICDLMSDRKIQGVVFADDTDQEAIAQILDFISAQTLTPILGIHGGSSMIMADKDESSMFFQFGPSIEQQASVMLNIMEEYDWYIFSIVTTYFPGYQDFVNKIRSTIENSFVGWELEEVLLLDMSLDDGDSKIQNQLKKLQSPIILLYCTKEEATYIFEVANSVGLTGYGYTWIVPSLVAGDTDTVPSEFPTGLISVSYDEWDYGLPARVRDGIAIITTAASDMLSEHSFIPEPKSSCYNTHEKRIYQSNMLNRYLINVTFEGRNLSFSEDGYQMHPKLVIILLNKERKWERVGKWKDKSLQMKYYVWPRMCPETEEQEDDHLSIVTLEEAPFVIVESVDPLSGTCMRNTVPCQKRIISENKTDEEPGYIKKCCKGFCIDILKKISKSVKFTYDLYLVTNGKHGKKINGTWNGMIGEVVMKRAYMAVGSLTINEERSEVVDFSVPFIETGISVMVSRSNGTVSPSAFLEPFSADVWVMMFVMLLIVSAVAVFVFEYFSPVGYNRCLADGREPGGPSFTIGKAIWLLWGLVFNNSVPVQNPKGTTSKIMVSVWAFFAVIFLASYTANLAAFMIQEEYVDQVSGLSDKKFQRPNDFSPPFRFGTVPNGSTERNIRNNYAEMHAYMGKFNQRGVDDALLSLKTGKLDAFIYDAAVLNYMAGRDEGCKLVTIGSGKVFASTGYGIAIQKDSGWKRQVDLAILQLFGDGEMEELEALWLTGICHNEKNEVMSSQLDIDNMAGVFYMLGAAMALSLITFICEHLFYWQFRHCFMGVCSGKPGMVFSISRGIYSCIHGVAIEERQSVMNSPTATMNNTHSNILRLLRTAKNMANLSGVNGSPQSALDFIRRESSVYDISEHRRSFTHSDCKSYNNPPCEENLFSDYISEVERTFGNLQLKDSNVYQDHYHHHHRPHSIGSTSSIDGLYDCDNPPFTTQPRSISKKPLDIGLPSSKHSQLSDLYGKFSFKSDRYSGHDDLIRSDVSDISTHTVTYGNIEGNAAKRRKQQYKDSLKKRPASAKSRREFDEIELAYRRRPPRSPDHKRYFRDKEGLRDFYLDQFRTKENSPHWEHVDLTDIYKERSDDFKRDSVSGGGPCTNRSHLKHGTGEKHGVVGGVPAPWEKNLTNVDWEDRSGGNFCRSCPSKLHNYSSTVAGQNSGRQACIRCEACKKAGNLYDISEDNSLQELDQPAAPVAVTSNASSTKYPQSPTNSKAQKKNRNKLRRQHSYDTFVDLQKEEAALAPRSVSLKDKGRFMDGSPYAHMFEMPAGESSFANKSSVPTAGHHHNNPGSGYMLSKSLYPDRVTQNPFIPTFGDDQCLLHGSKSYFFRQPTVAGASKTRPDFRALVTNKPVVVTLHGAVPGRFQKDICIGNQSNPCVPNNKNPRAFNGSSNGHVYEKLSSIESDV
Protocol: as §3
[^3H] […] Thus, using [^3H]
as §4, §5

hERG channel = hERG channel (Homo sapiens (Human), UniProt Q12809); assay: hERG channel inhibition, whole cell patch clamp in HEK293 cells; format: cell-based; details: 10 μM
Protocol: The assay was performed on hERG channel stably expressed in HEK293 cells. The cells were cultured at 37° C. in a humidified CO2 incubator in the growth medium consisting of DMEM, 10% fetal bovine serum and antibiotics. Prior to the assay, the cells were seeded onto a 12 mm PDL-coated glass coverslip and cultured in a 35 mm Petri dish. After 16 to 40 hr culture, the cover slip was transferred into the chamber of OctaFlow perfusion system (ALA Instrument) and under a constant flow of extracellular solution (140 mM NaCl, 4 mM KCl, 1 mM MgCl2, 2 mM CaCl2, 10 mM HEPES, 10 mM D-glucose, pH 7.35, osmolarity 290). Whole cell patch clamping was performed with a glass micropipette filled with intracellular solution (120 mM KCl, 1.75 mM MgCl2, 5.4 mM CaCl2, 10 mM HEPES, 10 mM EGTA, and 4 mM ATP-K2, PH 7.2, osmolarity 310). Giga-seal was maintained during the test. The voltage control and current measurement were carried out using Axon amplifier 700B, Digidata 1440A and CLAMPEX10 software (Molecular Devices). Whole-cell hERG currents were recorded following the Petroski protocol: the cell was held at −80 mV, and the voltage step jumped from −80 to 30 mV and stay for 2 sec with a 20 ms prepulse at −40 mV. After depolarization, the voltage was decreased to −40 mV and stay for 2 sec, and returned back to −80 mV. Test compound was applied by quartz capillary tubes tip (200 μm inner diameter), and the flow rate was controlled at 2-3 ml/min with OctaFlow perfusion system. Different concentrations of the compound were applied to the cells for 5 min and the hERG current was measured three times before, during and after compound treatment. The data were analyzed using Clampfit 10 software (Molecular Devices) to generate IC50 values.

CYP2D6 = CYP2D6 (Homo sapiens (Human), UniProt P10635); assay: CYP P450 enzyme inhibition, pooled human liver microsome; format: in vitro ADME; details: 10 μM, pooled HLM, dextromethorphan 5 μM
Sequence of CYP2D6 (P10635 whole entry): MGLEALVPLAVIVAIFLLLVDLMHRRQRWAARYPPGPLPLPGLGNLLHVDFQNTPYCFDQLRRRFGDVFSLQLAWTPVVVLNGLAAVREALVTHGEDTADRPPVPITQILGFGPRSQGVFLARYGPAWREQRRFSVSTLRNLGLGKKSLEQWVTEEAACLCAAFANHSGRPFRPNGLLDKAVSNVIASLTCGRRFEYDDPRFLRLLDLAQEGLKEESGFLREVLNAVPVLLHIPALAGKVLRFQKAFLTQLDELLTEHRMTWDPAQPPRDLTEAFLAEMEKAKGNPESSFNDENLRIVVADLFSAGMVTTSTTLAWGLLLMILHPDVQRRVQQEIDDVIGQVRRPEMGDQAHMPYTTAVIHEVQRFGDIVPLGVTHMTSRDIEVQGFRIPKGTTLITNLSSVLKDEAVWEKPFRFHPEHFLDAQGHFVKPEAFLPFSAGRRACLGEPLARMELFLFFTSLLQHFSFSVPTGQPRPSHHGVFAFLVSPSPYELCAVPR
Protocol: Those CYP isoforms and their corresponding probe substrates are as follows: CYP1A2 (phenacetin, 30 μM), CYP2C9 (tolutamide, 100 μM), CYP2C19 (S-mephenytoin, 40 μM), CYP2D6 (dextromethorphan, 5 μM) and CYP3A4 (midazolam, 1 μM). All probe substrates were used at concentrations near or below their Kms. For experiment, a reaction mixture of test compound at 10 μM or in serial dilution, CYP probe substrate described above and 0.2 mg/mL pooled HLM in phosphate buffer, pH 7.4 in a final volume of 200 μL was pre-incubated at 37° C. for 10 minutes in triplicate. The reaction was initiated by addition of NADPH at final concentration of 1 mM. The reaction was terminated after 10 minutes (CYP1A2, CYP2D6 and CYP3A4) or 30 minutes (CYP2C9 and CYP2C19) by addition of 100 μL ice-cold acetonitrile with internal standard (IS). The samples were then centrifuged at 13,000 rpm and the supernatants were injected to LC-MS/MS (Agilent Technologies) to quantify the concentration of the specific metabolites of the probe substrates formed by individual CYP450 isoforms. The inhibition ratio is calculated as: (Mt−M0)/Mwater×100% in which Mt and M0 represent the concentrations of the specific probe substrate metabolite, which was formed by individual CYP450 isoform, at the beginning and end of the reaction in the presence of test compound; while Mwater represents the concentration of the specific metabolite at the end of the reaction in the absence of test compound. Test compound concentration-dependent response data experiments performed in triplicate.

[1] = test system: electroconvulsive threshold (tonic convulsions); assay: Electroconvulsive Threshold Test (ECT); format: in vivo, rats; details: rats, 3 and 10 mpk p.o., mesylate salt
Protocol: Test compound E1-8.2 was administered as the free base.
Rats were administered ECS (rectangular current: 0.6 ms pulse width, 1.5 s duration, 200 Hz) via earclip electrodes connected to a constant current shock generator (Ugo Basile: type 7801). Test compounds were administered by oral gavage (p.o.) 1 hour before the test at a dose volume of 5 mL/kg.
Treatment groups of 20 rats were exposed to ECS as follows: The first animal was exposed to 30 mA of ECS. […] (increases of 5 mA) until the first tonic convulsion was observed. Once the first tonic convulsion was observed, the intensity of ECS was decreased by 2 mA for the next animal and then decreased or increased by 2 mA from animal to animal depending on whether the previous animal convulsed or not. If the first animal did convulse (tonic convulsions) within 5 seconds, animal no2 is exposed to 25 mA, etc. . . . (decreases of 5 mA) until the absence of tonic convulsions was observed. At this point, the intensity of ECS was increased by 2 mA for the next animal and then decreased or increased by 2 mA from animal to animal depending on whether the previous animal convulsed or not. The minimum current intensity applied is 5 mA and the maximum 95 mA. The first 5 animals serve to approach threshold current and were not included in the analysis. The results are presented as the mean current intensity administered to the final 15 animals of a group. The test was performed blind. A positive percent change indicates an anticonvulsant effect. A negative percent change indicates a proconvulsant effect. The test substance was evaluated at 4 doses, typically using 0.5% dimethylsulfoxide, 4% hydroxypropyl-b-cyclodextrin water as a vehicle, and administered p.o. 60 minutes before ECS, and compared with a vehicle control group. Diazepam (16 mg/kg p.o.), administered under the same experimental conditions, was used as reference substance. The experiment included 6 groups. Data with the test substance was analyzed by comparing treated groups with vehicle control using one-way ANOVA followed by Dunnett's t tests.

[2] = test system: pentylenetetrazole (PTZ) induced convulsions; assay: Pentylenetetrazole (PTZ) Seizure Test; format: in vivo; details: 10 mg/kg p.o., mesylate salt
Protocol: Rats, placed in individual macrolon cages (25×19×13 cm), were injected with pentylenetetrazole (PTZ) (100 mg/kg s.c.). The occurrence and latency of clonic and tonic convulsions and death were noted over a 30 minute period. 15 rats were studied per group. The test was performed blind. […]
Compounds were evaluated typically using 0.5% dimethylsulfoxide, 4% hydroxypropyl-b-cyclodextrin water as a vehicle at 1 or more doses (e.g., 1, 3 and 10 mg/kg), administered p.o. 30 minutes before PTZ, and compared with a vehicle control group. Diazepam (16 mg/kg p.o.), administered 60 minutes before PTZ, was used as reference substance. The experiment was performed over 2 separate sub-experiments with N=7 to 8 animals per group and per sub-experiment. Quantitative data (latencies) with the test substance was analyzed by comparing treated groups with vehicle control using Kruskal-Wallis test followed by Mann-Whitney U test. Quantitative data with the reference substance was analyzed using Mann-Whitney U test. Quantal data (frequencies) was analyzed by comparing treated groups with vehicle control using Fisher's Exact Probability tests (*=p<0.05; **=p<0.01; ***=p<0.001).

[3] = test system: haloperidol-induced catalepsy; assay: Haloperidol-Induced Catalepsy (HIC) Model; format: in vivo; details: rats
Text: The Haloperidol-induced Catalepsy (HIC) model detects antipsychotic activity and the action of NR2B selective antagonists (Steece-Collier et al. Exp. Neurol. 163: 239, 2000) and was based on methods described by Chermat and Simon (J. Pharmacol., 6, 493-496, 1975). The capacity to induce catalepsy serves as an index of the liability of a test substance to induce extrapyramidal side-effects, in particular Parkinsonism. Antagonism of antipsychotic-induced catalepsy can thus serve to detect anti-Parkinson potential.
Rats were injected with haloperidol (1 mg/kg i.p.) and were examined for catalepsy at 30 minute intervals up to 360 minutes. Presence (+) or absence (−) of catalepsy was assessed by three procedures: 1) imposed crossing of the ipsilateral fore- and hind-limbs; 2) placing the animal in the Buddha position; 3) the tilting board, an automatic device that, 5 seconds after positioning the rat, displaces the rat from a horizontal to vertical position and back while it clings to a wire grid with its front paws. Akinesia and catalepsy were assessed depending on whether or not the animal moves before (akinesia) or during operation of the board (catalepsy).
The 4 scores were cumulated over time to give a global catalepsy score per animal. Six rats were studied per group. The test was performed blind (test substances versus vehicle). Test substances were evaluated at 1 or more doses, administered typically using 0.5% dimethylsulfoxide, 4% hydroxypropyl-b-cyclodextrin water as a vehicle p.o. 15 minutes before haloperidol (i.e. 45 minutes before the first measurement), and compared with a vehicle control group.
Amphetamine (8 mg/kg p.o.), administered 60 minutes before the test (i.e. 90 minutes before the first measurement), was used as reference substance. Data with the test substances were analyzed by comparing treated groups with vehicle control using Kruskal-Wallis Test followed by Mann-Whitney U tests at each time and for cumulated score. Data with the reference substance were analyzed using Mann-Whitney U tests.

[4] = Table 2.1, HEK293 human NR1/NR2B, glutamate 100 μM, glycine 50 μM

Sequence of human NR1/NR2B (Q13224 27-1484, other chains not shown): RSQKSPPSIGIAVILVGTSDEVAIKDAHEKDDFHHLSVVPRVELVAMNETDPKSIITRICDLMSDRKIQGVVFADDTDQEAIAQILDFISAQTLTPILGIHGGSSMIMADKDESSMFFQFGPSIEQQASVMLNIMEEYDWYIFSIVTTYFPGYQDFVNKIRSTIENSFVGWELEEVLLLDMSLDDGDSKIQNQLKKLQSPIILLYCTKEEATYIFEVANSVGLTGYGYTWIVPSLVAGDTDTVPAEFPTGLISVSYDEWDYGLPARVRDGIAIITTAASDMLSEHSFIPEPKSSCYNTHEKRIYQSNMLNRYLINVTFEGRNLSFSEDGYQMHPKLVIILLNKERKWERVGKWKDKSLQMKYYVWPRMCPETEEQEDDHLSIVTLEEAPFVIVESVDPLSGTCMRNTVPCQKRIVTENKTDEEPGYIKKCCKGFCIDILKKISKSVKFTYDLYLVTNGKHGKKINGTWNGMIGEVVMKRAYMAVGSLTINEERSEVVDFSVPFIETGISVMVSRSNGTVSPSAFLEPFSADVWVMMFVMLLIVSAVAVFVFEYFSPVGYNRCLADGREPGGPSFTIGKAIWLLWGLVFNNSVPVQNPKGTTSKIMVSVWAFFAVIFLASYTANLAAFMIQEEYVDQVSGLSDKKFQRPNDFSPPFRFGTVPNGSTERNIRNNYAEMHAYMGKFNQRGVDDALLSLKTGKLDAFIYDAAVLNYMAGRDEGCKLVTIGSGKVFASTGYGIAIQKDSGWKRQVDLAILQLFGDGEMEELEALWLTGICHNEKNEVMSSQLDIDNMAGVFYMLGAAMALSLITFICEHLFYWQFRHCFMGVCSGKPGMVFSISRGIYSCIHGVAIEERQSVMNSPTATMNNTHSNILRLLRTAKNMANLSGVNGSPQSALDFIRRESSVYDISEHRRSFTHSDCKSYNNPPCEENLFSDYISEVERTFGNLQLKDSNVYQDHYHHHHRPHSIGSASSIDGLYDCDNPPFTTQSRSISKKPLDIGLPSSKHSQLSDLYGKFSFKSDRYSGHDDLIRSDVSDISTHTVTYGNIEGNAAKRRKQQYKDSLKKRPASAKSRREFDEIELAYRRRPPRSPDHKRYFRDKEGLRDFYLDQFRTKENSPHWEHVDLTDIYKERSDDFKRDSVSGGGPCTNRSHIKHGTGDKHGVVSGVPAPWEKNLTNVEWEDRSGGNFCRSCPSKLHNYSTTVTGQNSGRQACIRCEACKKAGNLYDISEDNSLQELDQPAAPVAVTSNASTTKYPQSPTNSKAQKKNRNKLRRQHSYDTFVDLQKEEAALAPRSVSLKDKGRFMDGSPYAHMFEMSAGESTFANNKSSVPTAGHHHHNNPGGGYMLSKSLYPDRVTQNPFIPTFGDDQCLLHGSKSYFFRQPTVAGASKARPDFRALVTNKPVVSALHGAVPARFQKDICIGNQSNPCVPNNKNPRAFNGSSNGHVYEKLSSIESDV

| Structure (SMILES) | IC50 (human NR1/NR2B; [4]) [nM] | IC50 (human NR1/NR2B; Table 2.2) [nM] | IC50 (human NR1/NR2B; Table 2.3) [nM] | IC50 (human NR1/NR2A) [nM] | partial effect on [3H] MK-801 binding (NMDA receptor) [%] | displacement of [3H] (E)-N1-(2-methoxybenzyl)-cinnamidine at the NR2B receptor high affinity site (NR2B receptor) [%] | Ki (NR2B receptor; read-out: Ki at the NR2B receptor high affinity site) [nM] | hERG @ 10 μM (%) (hERG channel) | CYP2D6 @ 10 μM (%) (CYP2D6) | electroconvulsive threshold, pro-/anticonvulsant activity [1] | number of rats showing tonic convulsions, change vs vehicle controls [2] [%] | latency to clonic convulsions, change vs vehicle controls ([2]; rats) | latency to death, change vs vehicle controls ([2]; rats) | latency to tonic convulsions, change vs vehicle controls ([2]; rats) | number of deaths, change vs vehicle controls ([2]; rats) [%] | cumulated score of catalepsy over 360 mins ([3]; 3 mg/kg p.o.) | cumulated score of catalepsy over 360 mins ([3]; 10 mg/kg p.o.) |
| --- | --- | --- | --- | --- | --- | --- | --- | --- | --- | --- | --- | --- | --- | --- | --- | --- | --- |
| O=C(OCc1ccc(F)cc1)N1CC[C@H](CNc2nccn3cnnc23)C(F)(F)C1 [Compound E1-1.4, R-4-fluorobenzyl 4-(([1,2,4]triazolo[4,3-a]pyrazin-8-ylamino)methyl)-3,3-difluoropiperidine-1-carboxylate] | 20.5 | 20.5 | 20.5 | > 10000 | 32 | 98 | 18.2 | 11 | 19 |  |  |  |  |  |  |  |  |
| Cc1ccc(COC(=O)N2CC[C@H](CNc3cnccn3)C(F)(F)C2)cc1 [Compound E1-21.2, R-4-methylbenzyl 3,3-difluoro-4-((pyrazin-2-ylamino)methyl)piperidine-1-carboxylate] | 14.4 | 14.4 | 14.4 | > 10000 | 49 | 98 |  | 27 | 97 |  |  |  |  |  |  |  |  |
| Cc1ccc(COC(=O)N2CC[C@H](CNc3cnc(C)cn3)C(F)(F)C2)cc1 [Compound E1-21.26, R-4-methylbenzyl 3,3-difluoro-4-((5-methylpyrazin-2-ylamino)-methyl)piperidine-1-carboxylate] | 38.7 | 38.7 | 38.7 | > 10000 | 41 | 99 |  | 39 | 32 | anticonvulsant activity | −82 | +45% | +31% | +40% | −82 | 11.7 | 1.0 |

— patent publication US10294230B2, “3,3-difluoropiperidine carbamate heterocyclic compounds as NR2B NMDA receptor antagonists” (Rugen Holdings (Cayman) Limited, priority 2015, dated 2019)
